In US6667173B2, “Nucleic acids encoding platelet derived growth factor-alpha receptors” (The Schepens Eye Research Institute, priority 2000, dated 2003):

Columns and labels:
[1] = test system: Erk; assay: PDGF-dependent activation of Erk in NIH 3T3 cells expressing mutant receptors (anti-phospho-Erk western blot); assay type: cell-based, mouse; details: 50 ng/ml PDGF-AA, 5 minutes
Method: Cells were stimulated as described in Example 2 and 20 μg of total cell lysate was subjected to western blotting analysis using anti-phospho-Erk or anti-Ras GTP-activating protein antibody as an internal control for the amount of protein. The phospho-extracellular signal related kinase (Erk) rabbit polyclonal antibody was purchased from New England Biolabs (Beverly, Mass.) and used at a dilution of 1:1000.

[2] = test system: human αPDGFR; assay: Tyrosine phosphorylation of the introduced mutant αPDGFR (292 immunoprecipitation from NIH 3T3 cells); assay type: cell-based, mouse; details: 292 antibody IP, RIPA lysis; 50 ng/ml PDGF-AA, 5 minutes
Sequence of human αPDGFR (P16234 24-589 limits assumed): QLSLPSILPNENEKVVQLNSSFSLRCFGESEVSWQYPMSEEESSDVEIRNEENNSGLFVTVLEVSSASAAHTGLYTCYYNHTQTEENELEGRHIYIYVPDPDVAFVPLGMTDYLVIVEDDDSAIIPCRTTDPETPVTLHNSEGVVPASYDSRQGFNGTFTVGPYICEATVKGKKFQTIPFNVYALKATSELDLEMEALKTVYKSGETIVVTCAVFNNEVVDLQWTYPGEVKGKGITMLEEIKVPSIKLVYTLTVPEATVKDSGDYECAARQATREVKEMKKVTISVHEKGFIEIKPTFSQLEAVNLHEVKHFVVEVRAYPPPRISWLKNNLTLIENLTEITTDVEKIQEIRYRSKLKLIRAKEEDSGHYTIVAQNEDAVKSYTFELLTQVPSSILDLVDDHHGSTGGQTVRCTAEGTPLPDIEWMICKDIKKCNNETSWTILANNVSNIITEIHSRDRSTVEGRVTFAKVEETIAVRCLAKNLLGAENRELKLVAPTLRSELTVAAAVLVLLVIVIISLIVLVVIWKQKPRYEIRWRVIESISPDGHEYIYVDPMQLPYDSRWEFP
Description: To characterize the kinase activity of the point mutants, these were immunoprecipitated using the 292 monoclonal antibody, which selectively recognizes an extracellular epitope of the introduced receptor and recognizes all of the mutants used in this study. While PDGF-stimulation is expected to dimerize mutant and wild type receptors, lysing cells in RIPA buffer breaks receptor dimers. Kelly, J. D. et al. (1991) J. Biol. Chem. 266:8987. Consequently, 292 immunoprecipitates are not expected to contain co-immunoprecipitating WT receptor. NIH 3T3 cells expressing the empty vector or receptor mutants were left resting, or stimulated with 50 ng/ml of PDGF-AA for 5 minutes, the cells were lysed in RIPA buffer and the resulting samples were subjected to anti-phosphotyrosine and anti-αPDGFR western blot analysis. In this series of experiments, we included the previously described Fα cell line, which is an NIH 3T3-like cell line that express the introduced human αPDGFR. Andrews, A. et al (1999) Invest. Ophthalmol. Vis. Sci. 40:2683. This cell line was included as a positive control, since the WT receptor in NIH 3T3 cells is mouse, and not recognized by the 292 antibody. As expected, the αPDGFR was immunoprecipitated from the Fα cells, but not the NIH 3T3 cells expressing the empty vector, and PDGF stimulation increased the phosphotyrosine content of the receptor (FIG. 3A). […]

[3] = test system: GST-PLCγ; assay: In vitro kinase assay of immunoprecipitated mutant αPDGFRs with exogenous substrate; assay type: biochemical; details: 292 immunoprecipitates, [32P]-γ ATP, 30° C., 5 min
Method: Mutant αPDGFRs were selectively immunoprecipitated with the 292 antibody, and samples representing 2×10^5 cells from 292 antibodies were subjected to an in vitro kinase assay. Immunoprecipitates were preincubated with 2 μg of GST protein for 10 min at 0° C., then 2 μg of Glutathione S-transferase fusion phospholipase C-gamma (GST-PLCγ, an exogenous substrate, 10 μCi of γ-[^32P] ATP (DuPont NEN Research Products, Boston, Mass.), and universal kinase buffer (UKB; 20 mM Pipes, pH 7.0, 10 mM MnCl2, 20 μg/ml aprotinin) were added. The samples were incubated at 30° C. for 5 min. The proteins were separated by 7.5% sodium dodecyl sulfate-polyacrylamide gel electrophoresis (SDS-PAGE), the gel was dried, and the radiolabeled protein was detected by autoradiography.

[4] = biological target: T1, βPDGFR (Homo sapiens, UniProt P09619); assay: Tyrosine phosphorylation of the βPDGFR in TGFβ- or PDGF-treated F cells; assay type: cell-based; details: Fβ cells; 1 ng/ml TGFβ1
T1 construct: expressed in transfected cells; host or cells: F cells (mouse embryo fibroblasts lacking both PDGFRs), giving Fβ
T1 sequence (P09619 33-1106): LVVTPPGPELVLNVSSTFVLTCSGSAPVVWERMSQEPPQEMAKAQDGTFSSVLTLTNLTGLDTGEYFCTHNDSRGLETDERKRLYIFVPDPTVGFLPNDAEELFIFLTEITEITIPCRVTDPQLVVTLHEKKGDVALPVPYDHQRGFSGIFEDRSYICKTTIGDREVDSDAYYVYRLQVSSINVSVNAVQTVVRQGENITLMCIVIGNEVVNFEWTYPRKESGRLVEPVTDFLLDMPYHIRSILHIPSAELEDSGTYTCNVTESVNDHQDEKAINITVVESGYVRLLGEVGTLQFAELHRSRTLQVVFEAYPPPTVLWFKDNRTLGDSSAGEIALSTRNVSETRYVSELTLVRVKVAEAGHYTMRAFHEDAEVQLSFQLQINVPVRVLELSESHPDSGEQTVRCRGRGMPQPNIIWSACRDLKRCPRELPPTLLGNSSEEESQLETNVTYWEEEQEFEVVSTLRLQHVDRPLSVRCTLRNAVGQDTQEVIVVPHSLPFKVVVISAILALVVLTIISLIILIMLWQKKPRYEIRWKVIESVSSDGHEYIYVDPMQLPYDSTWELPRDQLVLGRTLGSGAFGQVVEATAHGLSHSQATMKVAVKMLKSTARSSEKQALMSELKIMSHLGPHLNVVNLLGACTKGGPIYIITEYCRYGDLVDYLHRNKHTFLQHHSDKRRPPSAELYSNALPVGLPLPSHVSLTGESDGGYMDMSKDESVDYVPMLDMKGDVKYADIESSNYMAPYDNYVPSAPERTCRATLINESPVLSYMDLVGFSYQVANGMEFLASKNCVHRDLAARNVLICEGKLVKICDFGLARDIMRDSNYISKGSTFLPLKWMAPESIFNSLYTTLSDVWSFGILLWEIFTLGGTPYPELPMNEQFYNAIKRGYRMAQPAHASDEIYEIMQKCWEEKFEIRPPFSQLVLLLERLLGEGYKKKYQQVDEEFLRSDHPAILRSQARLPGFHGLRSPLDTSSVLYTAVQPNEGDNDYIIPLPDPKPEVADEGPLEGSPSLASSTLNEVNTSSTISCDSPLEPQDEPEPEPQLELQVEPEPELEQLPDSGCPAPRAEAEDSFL

[5] = test system: FCX^2, Fα and Fβ cells; assay: Collagen gel contraction assay of cells with no PDGFRs, αPDGFR or βPDGFR; assay type: cell-based, mouse; details: 1 ng/ml TGFβ1; 24, 48, 72 hours
Method: The contraction assay was based on a previously described reference, Skuta, G. et al. (1999) J. Biol. Chem. 274:30163, with the following modifications. Fα cells were suspended in 1.5 mg/ml of neutralized collagen I (Cohesion vitrogen 100, Palo Alto, Calif.) at a density of 10^6 cells/ml, and were transferred into the 24-well plate (Falcon, Franklyn Lakes, N.J.) that had been preincubated with phosphate-buffer saline (PBS) with 5 mg/ml of bovine serum albumin (BSA) overnight. The gel was solidified by incubating at 37° C. for 90 minutes, and then the well was flooded with DMEM+5 mg/ml of BSA supplemented with an amount of vitreous such that the final concentration of vitreous in the culture medium was 1, 5 or 20%. […] The media was replaced every 24 hours and the gel diameter was measured after 48 hours. The extent of contraction was calculated by subtracting the diameter of the well at 48 hours from the initial diameter (15 mm). […]
The experiments described in Example 9 (FIG. 7B) were repeated with cells that express the βPDGFR (Fβ) instead of the αPDGFR, or no PDGFRs (FCX^2). Contraction was scored at the 48 hours time point. […]
To more directly test whether TGFβ could moderate contraction of fibroblasts via the αPDGFR, the response of the three cell lines to purified TGFβ was examined. […] The gel diameter was measured after 24, 48, or 72 hours, and the media was replaced every day.

[6] = biological target: T2, αPDGFR (Homo sapiens, UniProt P16234); assay: Tyrosine phosphorylation of the αPDGFR in TGFβ- or PDGF-treated F cells; assay type: cell-based; details: Fα cells; 50 ng/ml PDGF-BB 5 minutes or 1 ng/ml TGFβ1 5 minutes to 8 hours
T2 construct: expressed in transfected cells; host or cells: F cells (SV-40 immortalized mouse embryo fibroblasts lacking both PDGFRs), giving Fα
T2 sequence (P16234 24-1089): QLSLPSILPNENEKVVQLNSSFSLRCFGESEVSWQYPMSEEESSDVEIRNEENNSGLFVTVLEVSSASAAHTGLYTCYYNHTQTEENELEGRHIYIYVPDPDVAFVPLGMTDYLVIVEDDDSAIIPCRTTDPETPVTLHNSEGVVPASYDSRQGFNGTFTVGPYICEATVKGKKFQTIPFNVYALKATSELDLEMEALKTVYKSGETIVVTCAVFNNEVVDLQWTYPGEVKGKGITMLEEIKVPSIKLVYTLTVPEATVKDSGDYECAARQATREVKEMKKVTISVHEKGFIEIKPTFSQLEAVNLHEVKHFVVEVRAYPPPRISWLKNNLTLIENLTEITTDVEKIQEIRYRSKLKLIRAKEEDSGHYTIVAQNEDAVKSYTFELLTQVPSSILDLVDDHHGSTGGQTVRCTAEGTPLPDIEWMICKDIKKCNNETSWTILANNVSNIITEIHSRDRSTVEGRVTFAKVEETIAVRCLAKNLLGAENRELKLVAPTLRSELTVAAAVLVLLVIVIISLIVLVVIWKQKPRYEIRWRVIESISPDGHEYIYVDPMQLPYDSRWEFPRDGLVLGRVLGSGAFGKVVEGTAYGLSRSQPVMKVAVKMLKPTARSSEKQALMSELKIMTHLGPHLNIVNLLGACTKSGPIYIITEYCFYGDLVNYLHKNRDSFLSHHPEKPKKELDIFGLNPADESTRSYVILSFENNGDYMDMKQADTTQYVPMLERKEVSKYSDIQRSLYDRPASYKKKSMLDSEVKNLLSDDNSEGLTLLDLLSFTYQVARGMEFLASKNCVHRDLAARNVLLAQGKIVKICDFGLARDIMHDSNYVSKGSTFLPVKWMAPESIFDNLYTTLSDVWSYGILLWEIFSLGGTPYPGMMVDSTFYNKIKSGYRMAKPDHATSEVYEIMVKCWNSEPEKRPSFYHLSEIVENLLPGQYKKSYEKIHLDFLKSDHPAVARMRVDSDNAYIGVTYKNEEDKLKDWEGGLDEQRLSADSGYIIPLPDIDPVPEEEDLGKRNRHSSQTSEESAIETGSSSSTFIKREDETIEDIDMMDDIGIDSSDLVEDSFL
Method: To show the effect of TGFβ on αPDGFR, the tyrosine phosphorylation state of the αPDGFR was assayed in TGFβ-treated cells. The F cells with or without PDGFR were grown to 80% confluent and then starved with DMEM containing 1% FBS for 20 hours. Cells were exposed at 37° C. for 5 minutes to either 50 ng/ml of PDGF-BB; with 1 ng/ml of TGFβ1 for 5 minutes, 1 hour, 2 hours, 4 hours, 6 hours or 8 hours; or were left unstimulated. After treatment the cells were washed twice with H/S (20 mM Hepes, pH 7.4, 150 mM NaCl) and then lysed in EB (10 mM Tris-HCl, pH 7.4, 5 mM EDTA, 50 mM NaCl, 50 mM NaF, 1% Triton-X 100, 0.1% BSA, 20 μg/ml aprotinin, 2 mM Na3VO4, 1 mM phenylmethylsulfonyl fluoride; PMSF). Lysates were centrifuged for 15 minutes at 13,000×g, the pellet was discarded and the soluble fraction was used as the total cell lysate. The protein concentration was measured using protein assay kit (Pierce, Rockfield, Ill.) following the manufacture's instructions.
Receptors were immunoprecipitated from the soluble fraction with the 27P antibody (described above). Immune complex was bound to formalin-fixed membranes of Staphylococcus aureus, spun through an EB sucrose gradient, and washed twice with EB, then with PAN (10 mM Pipes, pH 7.0, 100 mM NaCl, 1% aprotinin)+0.5% Nonidet P-40 (NP-40), and finally with PAN. The samples were resuspended in PAN before using for kinase assay or western blotting. […]

[7] = test system: NIH 3T3 cells; assay: [3H]-thymidine incorporation (entry into S phase) in NIH 3T3 cells expressing mutant receptors; assay type: cell-based, mouse; details: 10% FBS, 22 hours
Method: NIH 3T3 cells expressing either empty vector (EMP) or one of the αPDGFR mutants were trypsinized, resuspended in DMEM with 10% FBS, and plated at a density of 5×10^5 cells/well in 24-well tissue culture plates and cultured overnight. The cells were rinsed twice with phosphate buffered saline (PBS), and serum starved by incubation in 0.5 ml of DMEM with 0.1% FBS and 0.4 mg/ml of bovine serum albumin (BSA; Sigma) for 48 hours. The cells were then exposed to 50 ng/ml of PDGF-AA, 10% Fetal bovine serum (FBS) (v/v), or buffer for 22 hours. The cells were then pulsed for 4 hours in DMEM with 10% FBS containing 0.8 μCi/ml of [^3H]-thymidine (DuPont NEN Research Products). Finally, the cells were washed twice with PBS, and once with 5% trichloro acetic acid, and lysed in 250 μl of 0.25 N NaOH. The lysates were transferred into scintillation tubes containing 50 μl of 6 N HCl, and then 3 ml of scintillation fluid (ICN) was added. The incorporated radioactivity of [^3H]-thymidine uptake was quantitated in a scintillation counter (Packard, Meriden Conn.). The data were expressed as fold induction, which was calculated by dividing stimulated samples by the buffer control. Each condition was assayed triplicate, and the mean±standard deviation (SD) was obtained.

| Substance | PDGF-dependent activation of Erk [1] | basal or PDGF-stimulated tyrosine phosphorylation of the mutant receptor [2] | kinase activity towards exogenous substrate GST-PLCγ [3] | tyrosine phosphorylation of the βPDGFR [4] | TGFβ-induced contraction [5] | tyrosine phosphorylation of the αPDGFR [6] | [3H]-thymidine incorporation in response to serum [7] |
| --- | --- | --- | --- | --- | --- | --- | --- |
| D818N: human αPDGFR point mutant, aspartic acid at position 818 changed to asparagine; SEQ ID NO: 8 | failed to fully activated Erk | no detectable | not phosphorylated | – | – | – | – |
| TGFβ: recombinant human TGFβ1 purchased from R & D systems | – | – | – | very modest or undetectable tyrosine phosphorylation | induced contraction of the Fα cells to a much greater extent than either the Fβ cells or the cells that do not express any PDGFR | increased phosphorylation of the αPDGFR | – |
| V859M: human αPDGFR point mutant, valine at position 859 changed to methionine; SEQ ID NO: 10 | – | – | more active than the WT receptor | – | – | – | somewhat elevated response to serum |
